Values quoted from earlier work in patent US10966421B2, “Method and device for collecting and preserving cells for analysis” (priority 2002, dated 2021).

Assays:
[1] = in vivo
[2] = in vivo; remark: listed apart in the source
[3] = in vivo; remark: listed apart in the source

O=C(NCO)N(CO)C1(CO)C(=O)NC(=O)N1CO (centres unmarked) [Diazolidinyl urea, diazolidinyl urea]
Inhalation Toxicity [1]: None | Dermal Toxicity [2]: 2000 mg/kg | LD50 [3]: 2570 mg/kg

C=O [Formaldehyde, formaldehyde, reference compound]
Inhalation Toxicity [1]: 500 mg/kg | Dermal Toxicity [2]: 270 mg/kg
